Laboratory results taken from patent US4248887A, “Antibacterial compounds, processes for their preparation and compositions containing them” (priority 1978, dated 1981).
≈ marks a conversion by molar mass, not a printed value.

Tests used:
[1] = tested on: M. dispar NCTC 10125; test: Anti-mycoplasma MIC; assay type: cell-based
[2] = tested on: Past. multocida PA2; test: MIC against veterinary bacteria; details: Pasteurella multocida
[3] = tested on: H. influenzae Q1; test: MIC by serial dilution in nutrient agar (human bacteria); details: Haemophilus influenzae
[4] = tested on: M. hyorhinis ATCC 23234; test: Anti-mycoplasma MIC; assay type: cell-based; details: Mesomycoplasma hyorhinis, ATCC23234
[5] = tested on: Past. multocida 1633; test: MIC by serial dilution in nutrient agar (human bacteria); details: Pasteurella multocida
[6] = tested on: Bord. bronchiseptica BO9; test: MIC against veterinary bacteria; details: Bordetella bronchiseptica
[7] = tested on: M. bovis NCTC 10131; test: microbe, parasite or virus in culture; assay type: cell-based; details: NCTC10131
[8] = tested on: M. suipneumoniae Str. 11; test: Anti-mycoplasma MIC; assay type: cell-based; details: Mesomycoplasma hyopneumoniae, STR.11
[9] = tested on: B. subtilis; test: MIC by serial dilution in nutrient agar (human bacteria); details: Bacillus subtilis
[10] = tested on: Strep. agalactiae SPA1; test: MIC against veterinary bacteria; details: Streptococcus agalactiae
[11] = tested on: H. influenzae Wy21; test: MIC by serial dilution in nutrient agar (human bacteria); details: Haemophilus influenzae
[12] = tested on: Strep. pneumoniae CN33; test: as above; details: Streptococcus pneumoniae
[13] = tested on: Staph. aureus B4 (pen resistant); test: MIC against veterinary bacteria; details: Staphylococcus aureus
[14] = tested on: M. fermentans MWKL4; test: Anti-mycoplasma MIC; assay type: cell-based; details: Mycoplasmopsis fermentans
[15] = tested on: M. pneumoniae ATCC 15492; test: Anti-mycoplasma MIC; assay type: cell-based; details: Mycoplasmoides pneumoniae, ATCC15492, M. pneumoniae ATCC 15492
[16] = tested on: Past. multocida PA1; test: MIC against veterinary bacteria; details: Pasteurella multocida
[17] = tested on: Staph. aureus Russell; test: MIC by serial dilution in nutrient agar (human bacteria); details: Staphylococcus aureus
[18] = tested on: Strep. pyogenes A 64/848; test: as above; details: Streptococcus pyogenes, A64/848
[19] = tested on: Strep. pyogenes C 2761; test: as above; details: Streptococcus pyogenes, C2761
[20] = tested on: M. synoviae ATCC 25204; test: Anti-mycoplasma MIC; assay type: cell-based; details: Mycoplasmopsis synoviae, ATCC25204
[21] = tested on: M. dispar H225; test: Anti-mycoplasma MIC; assay type: cell-based
[22] = tested on: M. bovigenitalium ATCC 14173; test: Anti-mycoplasma MIC; assay type: cell-based
[23] = tested on: M. pneumoniae 427a; test: Anti-mycoplasma MIC; assay type: cell-based; details: Mycoplasmoides pneumoniae
[24] = tested on: Bord. bronchiseptica BO8; test: MIC against veterinary bacteria; details: Bordetella bronchiseptica
[25] = tested on: Strep. uberis SPU1; test: MIC against veterinary bacteria; details: Streptococcus uberis
[26] = tested on: Staph. aureus 1517; test: MIC by serial dilution in nutrient agar (human bacteria); assay type: cell-based; details: Staphylococcus aureus
[27] = tested on: M. alkalescens NCTC 10135; test: Anti-mycoplasma MIC; assay type: cell-based
[28] = tested on: Past. haemolytica PA5; test: MIC against veterinary bacteria; details: Mannheimia haemolytica
[29] = tested on: Strep. dysgalactiae SPD1; test: MIC against veterinary bacteria; details: Streptococcus dysgalactiae
[30] = tested on: Staph. aureus Oxford; test: MIC by serial dilution in nutrient agar (human bacteria); details: Staphylococcus aureus
[31] = tested on: M. suipneumoniae J2206/183b; test: Anti-mycoplasma MIC; assay type: cell-based; details: Mesomycoplasma hyopneumoniae, J2206/183B
[32] = tested on: M. pulmonis JB; test: Anti-mycoplasma MIC; assay type: cell-based; details: Mycoplasmopsis pulmonis
[33] = tested on: M. arthritidis ATCC 14124; test: Anti-mycoplasma MIC; assay type: cell-based
[34] = tested on: M. bovis ATCC 25025; test: microbe, parasite or virus in culture; assay type: cell-based; details: ATCC25025
[35] = tested on: Strep. pyogenes B 2788; test: MIC by serial dilution in nutrient agar (human bacteria); details: Streptococcus pyogenes, B2788
[36] = tested on: M. gallisepticum S6; test: Anti-mycoplasma MIC; assay type: cell-based; details: Mycoplasmoides gallisepticum, S6
[37] = tested on: N. catarrhalis 1502; test: MIC by serial dilution in nutrient agar (human bacteria); details: Neisseria
[38] = tested on: M. hyosynoviae ATCC 25591; test: Anti-mycoplasma MIC; assay type: cell-based
[39] = Agar (serial dilution in Friis' agar)
[40] = Broth (Friis' broth, microtiter method)

## CCOC(=O)/C=C(\C)CC1OCC(C/C=C/C(C)C(C)O)C(O)C1O (stereo not drawn) [Ethyl, Ethyl Monate C]
[1]
  MIC: 0.156 µg/mL (≈ 0.438 µM)
[2]
  MIC: 5 µg/mL (≈ 14 µM)
[3]
  MIC: 0.2 µg/mL (≈ 0.561 µM)
[4]
  MIC: 2.5 µg/mL (≈ 7.01 µM)
[5]
  MIC: 5 µg/mL (≈ 14 µM)
[6]
  MIC: 40 µg/mL (≈ 112 µM)
[7]
  MIC: 0.156 µg/mL (≈ 0.438 µM)
[8]
  MIC: 1.25 µg/mL (≈ 3.51 µM)
[9]
  MIC: 1 µg/mL (≈ 2.81 µM)
[10]
  MIC: 20 µg/mL (≈ 56.1 µM)
[11]
  MIC: 1 µg/mL (≈ 2.81 µM)
[12]
  MIC: 2.5 µg/mL (≈ 7.01 µM)
[13]
  MIC: 1.25 µg/mL (≈ 3.51 µM)
[14]; [39]
  MIC: 0.312 µg/mL (≈ 0.875 µM)
[14]; [40]
  MIC: 0.156 µg/mL (≈ 0.438 µM)
[15]; [39]
  MIC: 5 µg/mL (≈ 14 µM)
[15]; [40]
  MIC: 10 µg/mL (≈ 28.1 µM)
[16]
  MIC: 5 µg/mL (≈ 14 µM)
[17]
  MIC: 0.2 µg/mL (≈ 0.561 µM)
[18]
  MIC: 10 µg/mL (≈ 28.1 µM)
[19]
  MIC: 5 µg/mL (≈ 14 µM)
[20]
  MIC: 0.039 µg/mL (≈ 0.109 µM)
[21]
  MIC: 0.078 µg/mL (≈ 0.219 µM)
[22]
  MIC: 0.078 µg/mL (≈ 0.219 µM)
[23]; [39]
  MIC: 5 µg/mL (≈ 14 µM)
[23]; [40]
  MIC: 10 µg/mL (≈ 28.1 µM)
[24]
  MIC: > 80 µg/mL
[25]
  MIC: 5 µg/mL (≈ 14 µM)
[26]
  MIC: 0.2 µg/mL (≈ 0.561 µM)
[27]
  MIC: 0.039 µg/mL (≈ 0.109 µM)
[28]
  MIC: 40 µg/mL (≈ 112 µM)
[29]
  MIC: 20 µg/mL (≈ 56.1 µM)
[30]
  MIC: 0.2 µg/mL (≈ 0.561 µM)
[31]
  MIC: 10 µg/mL (≈ 28.1 µM)
[32]; [39]
  MIC: 0.039 µg/mL (≈ 0.109 µM)
[32]; [40]
  MIC: 0.156 µg/mL (≈ 0.438 µM)
[33]
  MIC: > 10 µg/mL
[34]
  MIC: 0.156 µg/mL (≈ 0.438 µM)
[35]
  MIC: 0.5 µg/mL (≈ 1.4 µM)
[36]
  MIC: > 10 µg/mL
[37]
  MIC: 0.2 µg/mL (≈ 0.561 µM)
[38]
  MIC: 1.25 µg/mL (≈ 3.51 µM)
